What was measured:
[1] = target: T1, capping protein (CP, CPα1β2) (Mus musculus, UniProt P47753+P47757); assay: Fluorescence anisotropy titration of CP into TAMRA-labeled CPI-motif peptide; assay type: binding
[2] = target: T1, capping protein (CP, CPα1β2); assay: Isothermal calorimetry; assay type: binding; conditions: for ΔG°obs, ITC: ΔG° = −RT ln Ka
[3] = target: CP:F-actin barbed end (Mus musculus, UniProt P47753+P47757); assay: Pyrene-actin polymerization; assay type: biochemical, Oryctolagus cuniculus (actin); conditions: at concentrations higher than 1 μM
[4] = target: CP bound to F-actin (Mus musculus, UniProt Q5RKN9+Q923G3); assay: Kd for CPI binding to CP bound to F-actin, calculated from thermodynamic cycle; parameters: species or system Oryctolagus cuniculus (actin)
[5] = independent experiment 1 (first line), 25 °C, pH 7.2
[6] = independent experiment 2 (second line)

Ac-WASHCAP-NH2 [WASHCAP]
Kd [1]: 8.5 ± 0.8 nM | N (stoichiometry), ITC [2, 5]: 0.985 ± 0.004 | TΔS°obs, ITC [2, 5]: -14.1 kcal/mol | ΔH°obs, ITC [2, 5]: -24.6 ± 0.1 kcal/mol | ΔG°obs, ITC [2, 5]: -10.56 ± 0.04 kcal/mol | N (stoichiometry), ITC [2, 6]: 0.971 ± 0.009 | TΔS°obs, ITC [2, 6]: -18.3 kcal/mol | ΔH°obs, ITC [2, 6]: -28.9 ± 0.4 kcal/mol | ΔG°obs, ITC [2, 6]: -10.60 ± 0.10 kcal/mol | interference of peptide with actin polymerization [3]: interfered with polymerization | Kd [4]: 110 ± 10 nM

Source: PMC7301643 (Biochemistry, 2020)
